The text below walks through data of US20250059395A1, “SURFACTANTS FOR INKS, PAINTS, AND ADHESIVES” (AdvanSix Resins & Chemicals LLC, priority 2023, published 2025).

A short description of this data set: Critical micelle concentration and surface tension by Wilhelmy plate method. Format: physicochemical. Particulars: comparison of Surfactant 9 and Comparative Surfactant. An excerpt:
As surfactant concentration increases, surface tension decreases. Once the surface is completely overlaid with surfactant molecules, micelles begin to form. This point represents the CMC, as well as the minimum surface tension. Further addition of surfactant will not further affect the surface tension. CMC may therefore be measured by observing the change in surface tension as a function of surfactant concentration. One such method for measuring this value is the Wilhemy plate method. A Wilhelmy plate is usually a thin iridium-platinum plate attached to a balance by a wire and placed perpendicularly to the air-liquid interface. The balance is used to measure the force exerted on the plate by wetting. This value is then used to calculate the surface tension (Y) according to Equation 1: […]
Nuclear magnetic resonance (NMR) spectroscopy was performed on a Bruker 500 MHz spectrometer. The critical micelle concentration (CMC) was determined by the Wilhelmy plate method at 23° C. with a tensiometer (DCAT 11, DataPhysics Instruments GmbH) equipped with a Pt—Ir plate. Dynamic surface tension was determined with a bubble pressure tensiometer (Krüss BP100, Krüss GmbH), at 23° C. Contact angle was determined with the optical contact angle goniometer (OCA 15 Pro, DataPhysics GmbH) equipped with a digital camera.

As to `C[N+](C)(CCCCCC(=O)NCCC[Si](O[Si](C)(C)C)(O[Si](C)(C)C)O[Si](C)(C)C)CC(=O)O` [Comparative Surfactant, N-(carboxymethyl)-6-((3-(1,1,1,5,5,5-hexamethyl-3-((trimethylsilyl)oxy)trisiloxan-3-yl)propyl)amino)-N,N-dimethyl-6-oxohexan-1-aminium bromide], the “surfactant properties (activity in words)” value was “inferior surfactant properties”.
Regarding `C[N+](C)(CCCCCC(=O)O)CCCCCC(=O)NCCC[Si](O[Si](C)(C)C)(O[Si](C)(C)C)O[Si](C)(C)C` [Surfactant 9, N-(5-carboxypentyl)-6-((3-(1,1,1,5,5,5-hexamethyl-3-((trimethylsilyl)oxy)trisiloxan-3-yl)propyl)amino)-N,N-dimethyl-6-oxohexan-1-aminium bromide], the “surfactant properties (activity in words)” value is listed as “excellent activity”.
